Results on 14 molecules are retold here after PMC9307983 (Acta Naturae, 2022).

The target in assay [1] is MGL, wild type. On the set-up: method as in PMID 21166645. Particulars: cited from earlier work; for Ki: wild type MGL, γ-elimination of L-methionine, read-out: K I (inhibition constant); for type of inhibition of the physiological reaction: wild-type enzyme.
Assay [2] has as its target T1, MGL, Ser339Ala (Citrobacter freundii, UniProt Q84AR1, S339A). It counts as biochemical. Conditions: for kex, α-H (exchange rate of C-α-proton) / kex, β-H (exchange rate of C-β-protons): Ser339Ala MGL, D2O, pD 7.6, 30°C, L-alanine 144.23 mM, L-norleucine 98.04 mM; for Number of exchanged C-α-protons / Number of exchanged C-β-protons: common to wild type and Ser339Ala MGL. As for the experimental part:
The kinetics of isotope exchange reactions of the C-α- and C-β-protons for deuteron in inhibitors, catalyzed by the mutant form, was detected using 1H NMR spectroscopy. The reaction was conducted in D2O containing 50 mM potassium phosphate (pD = 7.6), 0.1 mM PLP, and an inhibitor in a total volume of 0.5 mL at 30°C at L-alanine and L-norleucine concentrations of 144.23 mM and 98.04 mM, respectively. The reaction was initiated by adding 0.3–0.7 mg of the enzyme. 1H NMR spectra were recorded at fixed time intervals on a Bruker AMXIII-400 spectrometer at an operating frequency of 400 MHz. The signals of the C-α- and C-β-protons were integrated using the modified Enzkin computer program, which is a part of the XWIN-NMR programs. The kinetic curves of the yields of deuterated products were processed according to the method described in [39]. […]

The subject of assay [3] is MGL, wild type. Conditions: cited from earlier work.
Assay [4] addresses T1, MGL, Ser339Ala. Description: biochemical. Type of assay: biochemical. Particulars: for Ki: Ser339Ala MGL, γ-elimination of L-methionine, 30°C, pH 8.0, read-out: K I (inhibition constant); for type of inhibition of the physiological reaction: mutant enzyme (Ser339Ala MGL). As for the experimental part:
(§1) The kinetic parameters of the γ- and β-elimination reactions were determined at 30°C in the conjugate reaction with HOHxoDH or LDH based on a decrease in NADH absorbance at 340 nm (Δε = 6,220 M^–1cm^–1). The reaction mixtures contained a 100-mM potassium phosphate buffer, pH 8.0, 0.1 mM PLP, 1 mM DTT, 0.2 mM NADH, 70 μg HOHxoDH or 10 U LDH, and variable amounts of the substrate in a total volume of 1 mL. The reaction was initiated by the addition of 10 μg of the enzyme.
(§2) The kinetic parameters were calculated according to the Michaelis–Menten equation using the EnzFitter software. In the calculations, an enzyme subunit molecular weight of 43 kDa was used. The inhibition constants were also determined using the EnzFitter software.

The target in assay [5] is T1, MGL, Ser339Ala. It counts as biochemical. Particulars: for Km / kcat: Ser339Ala MGL, 30°C, pH 8.0, coupled with HOHxoDH or LDH; for specific activity: Ser339Ala MGL samples of 95% purity, 30 mM substrate, pH 8.0. As for the experimental part: The homogeneity of samples was examined by PAGE electrophoresis under denaturing conditions. During purification, activity was determined in the β-elimination reaction; activity of the final sample was determined in β- and γ-elimination reactions. […] The amount of enzyme that catalyzes the formation of […] of keto acid was defined as the unit of enzymatic activity.
as §1, §2

Assay [6] relates to MGL, wild type. Particulars: cited from earlier work. This is another data set of the same source.
In another assay the target is wild-type MGL. Particulars: read-out: dissociation constant of the PLP complex; cited from earlier work.
Where [7] appears, read: wild type MGL, substrate of elimination reaction.

Read-outs that look alike come from different tables or passages of the source. Marks after values point to notes of the source that are not given here.

As for `CCCC[C@H](N)C(=O)O` [L-Nle, L-norleucine], on MGL, wild type [1], the Ki was 0.6 ± 0.06 mM and the “type of inhibition of the physiological reaction” value is reported as “competitive inhibitors”. For the same molecule, at MGL, Ser339Ala [2], the “kex, α-H (exchange rate of C-α-proton)” value was found to be 0.46 s⁻¹; the “kex, β-H (exchange rate of C-β-protons)” value came to 0.12 s⁻¹; the “Number of exchanged C-α-protons” value stood at 1; the “Number of exchanged C-β-protons” value was found to be 2. For the same molecule, in the assay on MGL, wild type [3] (wild type MGL), the “kex, α-H (exchange rate of C-α-proton)” value is 41.8* s^-1 and the “kex, β-H (exchange rate of C-β-protons)” value is on record as 4.74* s^-1. At MGL, Ser339Ala [4], the Ki was determined as 0.89 ± 0.09 mM and the “type of inhibition of the physiological reaction” value was “competitive inhibitors”.
With `CC[C@H](N)C(=O)O` [L-α-Abu, L-α-aminobutyric acid], at MGL, wild type [1], the Ki was 8.01 ± 0.76 mM and the “type of inhibition of the physiological reaction” value is on record as “competitive inhibitors”. Besides, on MGL, Ser339Ala [4], the Ki stood at 4.66 ± 0.51 mM and the “type of inhibition of the physiological reaction” value is “competitive inhibitors”.
On to S-benzyl-L-cysteine [S-Bzl-L-Cys], for which the Km on MGL, Ser339Ala [5] was 5760 ± 590 µM; in the assay with MGL, wild type [6], 180 ± 20 µM. Moreover, the kcat at MGL, Ser339Ala [5] is on record as 1.81 ± 0.094 s^–1; in the assay on MGL, wild type [6] (setting [7]), 8.16 ± 0.23* s^–1.
Regarding `Cc1ncc(COP(=O)(O)O)c(C=O)c1O` [PLP, pyridoxal 5’-phosphate], the Kd on wild-type MGL was 0.000624 mM.
As to `CC(=O)OCC[C@H](N)C(=O)O` [O-Ac-L-Hse, O-acetyl-L-homoserine], the Km was 2070 ± 220 µM at MGL, Ser339Ala [5] and 2910 ± 180 µM in the assay with MGL, wild type [6] (setting [7]). In addition, the kcat at MGL, Ser339Ala [5] is listed as 0.77 ± 0.011 s^–1; in the assay with MGL, wild type [6] (setting [7]), 2.1 ± 0.053** s^–1.
For `C[C@H](N)C(=O)O` [L-Ala, L-alanine], on MGL, wild type [1], the Ki is 3.41 ± 0.4 mM and the “type of inhibition of the physiological reaction” value is on record as “competitive inhibitors”. Moreover, at MGL, Ser339Ala [2], the “kex, α-H (exchange rate of C-α-proton)” value turned out to be 0.387 s⁻¹; the “kex, β-H (exchange rate of C-β-protons)” value turned out to be 0.116 s⁻¹; the “Number of exchanged C-α-protons” value turned out to be 1; the “Number of exchanged C-β-protons” value is given as 3. Also, in the assay with MGL, wild type [3] (wild type MGL), the “kex, α-H (exchange rate of C-α-proton)” value was 2.71* s^-1 and the “kex, β-H (exchange rate of C-β-protons)” value is 2.63* s^-1. The “type of inhibition of the physiological reaction” value at MGL, Ser339Ala [4] is recorded as “competitive inhibitors”.
In the case of `NC(CCS)C(=O)O` (racemic) [DL-Hcy], the Michaelis-Menten constant (Km) is 3390 ± 340 µM at MGL, Ser339Ala [5] and 970 ± 150 µM with MGL, wild type [6] (setting [7]). The kcat at MGL, Ser339Ala [5] was 0.28 ± 0.009 s^–1; with MGL, wild type [6] (setting [7]) it was 8.51 ± 0.41* s^–1.
For the molecule `CCC[C@H](N)C(=O)O` [L-Nva, L-norvaline], at MGL, wild type [1], the Ki was 4.6 ± 0.43 mM and the “type of inhibition of the physiological reaction” value is listed as “competitive inhibitors”. For the same molecule, at MGL, Ser339Ala [4], the Ki stood at 1.7 ± 0.32 mM and the “type of inhibition of the physiological reaction” value is “competitive inhibitors”.
`CC(=O)OC[C@H](N)C(=O)O` [O-Ac-L-Ser]: at MGL, Ser339Ala [5], the Michaelis-Menten constant (Km) was 16400 ± 1090 µM and the kcat is 0.047 ± 0.001 s^–1. In the assay with MGL, wild type [6] (setting [7]), the Km is 4280 ± 330 µM and the kcat is 2.13 ± 0.037*** s^–1.
S-ethyl-L-cysteine [S-Et-L-Cys]: on MGL, Ser339Ala [5], the specific activity came to 1.03 U/mg, the Km stood at 6470 ± 540 µM and the kcat was 0.67 ± 0.024 s^–1. For the same molecule, in the assay with MGL, wild type [6], the Michaelis-Menten constant (Km) is 170 ± 20 µM. Moreover, the kcat in the assay on MGL, wild type [6] (setting [7]) is on record as 5.03 ± 0.16* s^–1.
In the case of S-methyl-L-cysteine [S-Met-L-Cys], the Michaelis constant (Km) was 21800 ± 2250 µM on MGL, Ser339Ala [5] and 710 ± 110 µM in the assay on MGL, wild type [6] (setting [7]). The kcat is 0.41 ± 0.018 s^–1 on MGL, Ser339Ala [5] and 4.6 ± 0.29* s^–1 in the assay on MGL, wild type [6] (setting [7]).
For the molecule `CSCC[C@H](N)C(=O)O` [L-Met, L-methionine], on MGL, Ser339Ala [5], the specific activity is on record as 0.31 U/mg. Further, in the assay with MGL, wild type [6] (setting [7]), the Km was 700 ± 110 µM and the kcat is reported as 6.2 ± 0.42* s^–1.
Turning to `CCSCC[C@H](N)C(=O)O` [S-Et-L-Hcy], on MGL, Ser339Ala [5], the Michaelis constant (Km) stood at 540 ± 37 µM and the kcat was 0.16 ± 0.0016 s^–1. For the same molecule, in the assay with MGL, wild type [6] (setting [7]), the Michaelis constant (Km) is 540 ± 10 µM and the kcat was 6.78 ± 0.02* s^–1.
For the molecule `NCC(=O)O` [Gly, glycine], the Ki on MGL, wild type [1] was 48.5 ± 4.37 mM; on MGL, Ser339Ala [4], 22.9 ± 2.84 mM. The “type of inhibition of the physiological reaction” value in the assay with MGL, wild type [1] is on record as “competitive inhibitors”; on MGL, Ser339Ala [4], “competitive inhibitors”. The “kex, α-H (exchange rate of C-α-proton)” value was 0.078 s⁻¹ on MGL, Ser339Ala [2] and 20.2* s^-1 in the assay with MGL, wild type [3]. Also, the “exchange of the pro-(S) proton” value at MGL, Ser339Ala [2] (mutant form, long incubation in D2O (led to inactivation of the enzyme)) is reported as “unable to detect any exchange”.
